The text below walks through data of patent US7125847B1, “Mechanically activated channel blocker” (priority 2000, dated 2006).

In one assay the test system is ventricular myocytes. In words: Myocyte volume by video microscopy in CHF rabbit ventricular myocytes. The format is cell-based. The conditions noted are these: 0.4 μM. The procedure:
Myocyte volume was determined by visualization with an inverted Nikon Diaphot microscope equipped with Hoffman modulation optics and a high resolution TV camera coupled to a video frame-grabber. Images were captured on-line each time a ramp or step voltage clamp protocol was performed using a program written in C and assembler and linked to ASYST voltage-clamp software. A combination of commercial (MOCHA; SPSS) and custom (ASYST) programs were used to determine cell width, length, and area of the image. GsMTx-4 produced a cell volume reduction that is ˜40% of that produced by 1.5 T […] saline.

Assay [1] deals with stretch-activated channels (SACs). In words: Outside-out patch clamp of stretch-activated channels in adult rat astrocytes. Type of assay: cell-based. The procedure: This embodiment describes the effect of the peptide GsMTx-4 variant (SEQ ID NO:1) on SACs. To illustrate this, adult rat astrocytes which are known to have SACs, were used. Adult rat astrocytes were cultured according to standard methods. Briefly, activated adult astrocytes isolated from gelatin-sponge implants from adult Sprague-Dawley rat brains obtained according to the method of Langan et al. (1995, Glia, 14:174–184) were used at passage numbers 2–4. Astrocytes were maintained in DMEM, 10% fetal bovine serum and 1% Penicillin/Streptomycin and were used in experiments between 2 and 5 days after passage. Cells between passage 4 and 35 expressed SACs with the same properties Both stellate process bearing cells and flat polygonal (fibroblast-like) cells were used.
The cultured astrocytes were used for single channel and whole cell recorndings. For single channel patch clamp, patch voltage was controlled by an Axopatch 200B (Axon Instruments, Calif.) and currents were recorded directly onto computer disk via a Labmaster DMA Ver. B (Scientific Instruments, Calif.) board controlled by pClamp6-Clampex acquisition software (Axon Instruments, California). Currents were sampled at 10 KHz and low-pass filtered at 2 KHz through the 4 pole Bessel filter on the Axopatch 200B. Experimental voltage protocols were controlled by pClamp6-Clampex. All potentials are defined with respect to the extracellular surface.
Electrodes were pulled on a Model PC-84 pipette puller (Brown-Flaming Instruments, Calif.), painted with Sylgard 184 (Dow Corning Corp. Midland Mich.) and fire polished. Electrodes were filled with KCl saline (KCl 140 mM, EGTA 5 mM, MgSO4 2 mM, Hepes 10 mM, pH 7.3) and had resistances ranging from 3–8 MWBath saline consisted of NaCl 140 mM, KCl 5 mM, MgSO4 1 mM, CaCl2 1 mM, glucose 6 mM and Hepes 10 mM, pH 7.3.
Pressure and suction were applied to the pipette by a pressure clamp. Pressure values represent pressure in the pipette, i.e., the intracellular side of the membrane in outside-out patches. Suction applied to a cell-attached patch has the same sign as pressure applied to an outside-out patch. The rise time of pressure changes at the tip were determined by monitoring the rate of current change when pressure steps were applied to an electrode containing 150 mM KCl solution and placed in a water bath. The t10-90 was ˜5 ms as determined by exponential fits to the current decay. Perfusion of toxin samples was performed by a pressurized bath perfusion system BPS-8 (ALA scientific instruments, NY) with 8 separate channels.
Off-line data analysis was performed with pClamp6 analysis software and Origin 5.0. Maximal unitary channel currents were determined via Guassian fits to the peaks of all points amplitude histograms generated from records containing 1–3 channels. […] Some of these records were analyzed by determining all of the step-like changes in current during the pressure application and selecting the average maximal current level as the unitary current. The data analyzed by this method was in good agreement with the unitary current levels determined by analysis of all points amplitude histograms from single channel patches.
The outside out patches from adult astrocytes as described above were used for testing the HPLC fractions obtained in Example 1. The HPLC fractions were lyophilized, redissolved at a 1:1000 dilution and perfused onto outside out patches. […] The fraction containing the single peak in FIG. 1D was then tested for activity against SACs. […] The patch was held at −50 mV, and the pressure pulse is shown above the records.
The entire experiment is comprised of 60 pressure steps: steps 1–20 occur before GsMTx-4 application; steps 21–38 while GsMTx-4 is being perfused; steps 39–60 occur during washout. Each 500 ms pressure step was separated by 1.5 seconds at 0 pressure.
The association rate of the toxin was determined by applying GsMTx-4 to an outside-out patch while the channels were activated by stretch (FIG. 5). […]
Background: In patch-clamp work, channel activity is measured electrically.

In assay [2] the test system is swelling-activated currents in ventricular myocytes. Kind of assay: Perforated patch whole-cell swelling-activated currents in ventricular myocytes from rabbits with aortic regurgitation-induced CHF. The format is cell-based, rabbit. The conditions noted are these: 0.4 μM. As for the experimental part:
Ventricular myocytes were freshly isolated from New Zealand white rabbits with aortic regurgitation induced congestive heart failure using a collagenase-pronase dispersion method (Clemo et al., 1997, supra). Cells were stored in a modified Kraft-Bruhe solution (KOH 132 mM, glutamic acid 120 mM, KCl 2.5 mM, KH2PO4 10 mM, MgSO4 1.8 mM, K2EGTA 0.5 mM, glucose 11 mM, taurine 10 mM, Hepes 10 mM, pH 7.2). Myocytes were used within 6 h of harvesting and only quiescent cells with no evidence of membrane blebbing were selected for study.
Swelling activated currents were measured in myocytes according to the method of Clemo & Baumgarten (1997). Briefly, electrodes were pulled from glass capillaries to give a final tip diameter of […] and a resistance of 0.5–1 MW when filled with the standard electrode filling solution (K aspartate 120 mM, KCl 10 mM, NaCl 10 mM, MgSO4 3 mM, Hepes 10 mM, pH 7.1). Whole cell currents were recorded using an Axoclamp 200A. Pulse and ramp protocols, voltage clamp data acquisition and off-line data analysis were controlled with software written in ASYST. Both step and ramp voltage clamp protocols were applied with a holding potential of −80 mV. Currents were digitized at 1 KHz and low-pass filtered at 200 Hz. Whole cell currents were recorded using the amphotericin perforated patch technique. Solution changes were performed by bath perfusion that was completed within 10 s. The standard bath solution contained (NaCl 65 mM, KCl 5 mM, CaSO4 2.5 mM, MgSO4 0.5 mM, glucose 10 mM and Hepes 10 mM pH 7.2, and 130 mM (IT) or 283 mM (1.5 T) mannitol to control the osmolarity. Isotonic osmolarity was taken as 296 mosm (IT) and 444 mosm for hypertonic solution (1.5 T).
The myocytes were exposed to 1.0 T and 1.5 T solution in the absence (1.0 TC, 1.5 TC) and presence (1.0 TTX, 1.5 TTX) of 0.4 μM GsMTx-4. […] However, whole cell current was unaffected by GsMTx-4 when swelling-activated currents were inactivated by 1.5 T hypertonic saline (FIG. 9Bd). […] The remaining inward current is largely. ICI,swell. […]

Several values for one entry are separate records, joined by “and”; a condition that tells them apart may be missing. Equal entries are not always repeated.

Take “GCLEFWWKCNPNDDKCCRPKLKCSKLFKLCNFSFGK [GsMTx-4]”: the “cell volume reduction relative to that produced by 1.5 T saline” value in the assay with ventricular myocytes is listed as around 40%. For the same sequence, the “time constant of current decay during GsMTx-4 application (association)” value in assay [1] (5 μM toxin, outside-out patches held at −50 mV, single exponential fit) came out at 594 ± 10 ms. Besides, the “average SAC current when GsMTx-4 was applied” value in assay [1] (7 patches, −50 mV, 2.04±0.14 pA prior to application) was 0.17±0.02 pA. Also, the “block of SACs” value in assay [1] (HPLC fractions at 1:1000 dilution relative to whole venom, outside-out patches) is recorded as “the block was complete”. In assay [1] (assuming 1:1 binding, from time constant at 5 μM), the association constant ka was 340000 M⁻¹ s⁻¹ and 330000 M⁻¹ s⁻¹. The “ratio of blocked to unblocked current I/I0” value in assay [1] (data of FIG. 6) came out at 0.083. The dissociation constant kd in assay [1] (from recovery kinetics on washout) amounted to 0.21 s⁻¹. Besides, in assay [1] (last 8 pressure steps, 10 seconds after washout), the “average SAC current after GsMTx-4 washout” value is 2.28±0.17 pA. In addition, the “calculated equilibrium constant KD=kd/ka” value in assay [1] (ratio of rate constants) is 631 ± 240 nM. Further, in assay [1] (single binding site model, read-out: binding constant Kd from I/I0), the Kd was determined as 415 nM. Further, in assay [2] (1.0 T), the “effect on inward ICir,swell” value is “significant reduction” and the “effect on outward ICI,swell” value is reported as “no effect”. For the same sequence, in assay [2] (1.5 T hypertonic saline), the “effect on whole cell current when swelling-activated currents inactivated” value is listed as “unaffected”.
